The source of these data is patent publication US20240197596A1, “COMPOUNDS USEFUL AS HAIR DYES” (National University of Singapore, priority 2021, published 2024).

≈ marks a conversion by molar mass, not a printed value.

The conditions of data set [1]: in vivo; cited from earlier work.
In data set [2] the test system is THP-1 cells. Nature of the data set: h-CLAT assay on THP-1 cells: markers against OECD cut-off, prediction, cell viability. In kind it is cell-based, human. As to conditions: 8 doses based on CV75, 24 h. How it is done:
(§1) The assay was conducted as per the literature (Toxicol In Vitro, 2006, 20, 767-73). THP-1 cells were cultured in 24-well plates (1×10^6 cells/1 mL/well) with various concentrations of each chemical (N1-N13), +ve control (DNCB), −ve control for 24 h.
(§2) THP-1 cells were cultured in 24-well plates (1×10^6 cells/mL/well) and treated with recommended concentrations of each chemical (N1-N13), positive control (DNCB) or negative control (SLS) for 24 h. THP-1 cells were cultured and treated with 8 doses of N1-N13 based on the CV75 namely, 1.2×CV75, 1×CV75, 1/1.2×CV75, 1/1.2^2×CV75, 1/1.23×CV75, 1/1.24×CV75, 1/1.2^5×CV75 and 1/1.2^6×CV75. After 24 h, cells were transferred to 1.5 mL of microtubes and centrifuged at 450 g, 5 min, 4° C. Supernatant was discarded and cells were washed with 1 mL of FACS buffer (PBS+FBS+HEPES). The cells were centrifuged at 450 g, 5 min, 4° C. 50 μL of Fc block (0.01% of Globlins Cohn fraction II, III) was added and incubated for 10 min at 4° C. The cells were stained with 20 μL APC CD54 (Mouse IgG1, K, BD Biosciences, San Diego, CA, USA), 20 μL FITC CD86 (Mouse IgG1, K, BD Biosciences, San Diego, CA, USA) or their respective isotype controls and incubated for 15 min at room temperature in dark. After incubation, the antibodies were diluted with 200 μl FACS buffer. The cells were washed with 1 mL FACS buffer twice. Further, 200 μL Propidium iodide (PI, 0.625 μg/mL) prepared in FACS buffer was added before the flow cytometry analysis. Flow cytometric analysis was performed with BD LSR Fortessa™ (Becton Dickinson, San Jose, CA, USA) In total, 10,000 living cells were analysed, and data were processed using Flowjo software (v10.6, Ashland, OR, USA). The test concentration providing a cell viability of 75% (CV75) was derived from the dose response curve and was calculated by log-linear interpolation.
(§3) Geometric mean fluorescence intensity (MFI) was measured for CD54^+ and CD86^+ cells separately and percentage relative fluorescence intensity (% RFI), reflective of CD86 and CD54 relative expression was calculated as described below. RFI was not calculated if cell viability fell below 50%.
(§4) All chemicals were tested in three independent experiments. If in two of three independent experiments at any dose exceeded 150% RFI for CD86, or 200% RFI for CD54, the chemicals could be identified as a sensitizer. Otherwise it is identified as a non-sensitizer.

For data set [3], the system named is THP-1 cells. As to the kind of experiment: MTT assay on THP-1 cells (CV75). The following applies: THP-1 cells, 24 h. It counts as cell-based, human. As for the experimental part:
THP-1 (human acute monocytic leukaemia cell line) cell suspension was adjusted to 1×10^5 cells per well and seeded in 96-well plates. The plate was incubated at 37° C. with 5% CO2. After 24 h, 10 mM stock solutions of N1-N13 were prepared in autoclaved milli-Q water. A series of concentrations diluted in media was prepared and added to the wells. Each concentration was performed in 6-replicates, and seeded wells with only media and no compound were used as controls while wells with only media were used as blanks. The plate was incubated for 24 h, after which 100 μL of MTT reagent was added and the plate was further incubated for 3 h before adding 100 μL of DMSO. Subsequently, the plate was shaken for 20 min, and then absorbance at 570 nm was determined using a Bio-Tek plate reader. Percentage cell viability was calculated and CV75 values were determined.

The next data set deals with IL-8. The following applies: data from J Hazard Mat., 2021, 402, 123712 (FIG. 6); cited from earlier work.
In a further data set the test system is CD54. As to the kind of experiment: h-CLAT assay, CD54 expression by flow cytometry. In kind it is cell-based, human. The following applies: THP-1 cells, 24 h. As for the experimental part:
as §1, §2, §3, §4
(A flow cytometer gives signals particle by particle.)

Another data set concerns IL-1α. As to conditions: data from J Hazard Mat., 2021, 402, 123712 (FIG. 6); cited from earlier work.
Data set [4] can be described thus: Thermodynamic solubility assay (modified shake flask, LC-MS/MS). The following applies: Milli-Q water, 25 °C, pH 7, water, thermodynamic from solid, Water Solubility, library of old series (Table 4). As for the experimental part: The aqueous solubilities (pH=7) of these compounds were measured using the modified shake flask method and LC-MS/MS. Each hair dye was added into a 2 mL glass vial containing Milli-Q water (1 mL) to form the precipitates at 25° C. Then the mixture was subjected to a solubility-equilibrium stage. The vials were shaken at 300 rpm at 25° C. for 24 h. The precipitate was separated by centrifugation at 23,000 g for 20 min. Subsequently, 0.5 mL of supernatant was transferred into a 1 mL Eppendorf tube, and it was centrifuged again as mentioned above. The supernatant was then used for LC-MS/MS analysis.
The mass spectrometric analysis was performed by use of a AB SCIEX QTRAP 5500 tandem mass spectrometry (MS/MS) system (AB SCIEX, Framingham, MA, USA) operating in triple quadrupole positive mode (ESI+) equipped with an AB Sciex Turbo Ion Spray interface. Acquisition and analysis of data were performed with Analyst software ver. 1.4.2 (Applied Biosystems) which performed all chromatographic peak integration. For each hair dye, a standard curve consisting of four concentrations was established.
Solvent A was composed of 0.1% [v/v] formic acid in Milli-Q water while solvent B was composed of 0.1% [v/v] formic acid in acetonitrile. A mobile phase gradient pumped at 0.6 mL/min was used to elute the hair dyes from the column. The column was equilibrated for 1 min resulting in a total run time of 5 min. The injection volume was 5.0 μL for all derivatives. To prevent compound accumulation on the needle, 50% methanol in ACN was used as needle wash for 30 s per sample.

The conditions of data set [5]: data from J Hazard Mat., 2021, 402, 123712, cited from earlier work.
For another data set, the system named is CD86. As to the kind of experiment: h-CLAT assay, CD86 expression by flow cytometry. In kind it is cell-based, human. As to conditions: THP-1 cells, 24 h. As for the experimental part: as §1, §2, §3, §4
The test system of the next data set is HaCaT cells. As to conditions: data from J Hazard Mat., 2021, 402, 123712; cited from earlier work.

As usually defined, the solubility is how much of the substance goes into solution per volume. Usually IC50 stands for the concentration that inhibits the measured activity by half.

Regarding `COCc1cc(N)ccc1N` [ME-PPD, 2-(methoxymethyl)benzene-1,4-diamine], the “PPD-allergic individuals who develop an allergic reaction” value in [1] is “approximately 30%”. For the same molecule, the “CD54 and CD86 marker expression against OECD cut-off” value in the data set with THP-1 cells [2] was “above the recommended threshold”. Further, the “CV75 (concentration affording 75% cell viability), 1 × CV75” value in the data set with THP-1 cells [3] was found to be 144.6 µg/mL. Moreover, the “release of IL-8” value in the data set on IL-8 was “higher concentrations”. In addition, the “EC200 for CD54 (lowest concentration inducing % RFI of 200)” value in the data set with CD54 came out at 120.5 µg/mL. Besides, the “release of IL-1α” value in the data set on IL-1α was “higher concentrations”. Also, the solubility at 24 h in data set [4] was 78 mg/mL (≈ 512 mM). Further, in [5] (8 h), the “Cumulative amount at 8th hour” value is 0.519 μg/cm^2 and the “Cumulative amount comparison of PPD vs derivatives” value was 10.4. In [5], the “Permeated through skin into receptor” value is on record as 0.0044 % of applied compound dose, the “Recovered in donor compartment” value is on record as 89 % of applied compound dose, the Recovered in skin was 3.6 % of applied compound dose and the “Recovered in skin outside diffusion area” value was 0.0042 % of applied compound dose. For the same molecule, in data set [5], the “Recovered in skin swabs” value is on record as 0.69 % of applied compound dose; the “Recovered on parafilm and in washes” value is 1.84 % of applied compound dose; the “Total recovery (mean percentage parent compound recovery)” value was 95 ± 0.79%. Further, the “EC150 for CD86 (lowest concentration inducing % RFI of 150)” value in the data set on CD86 is 117.9 µg/mL. Further, in the data set on HaCaT cells, the half-inhibitory concentration (IC50) is 334 µM.
